Test results: US9713618B2, “Method for modifying food intake and regulating food preference with a DPP-4 inhibitor” (Boehringer Ingelheim International GmbH, priority 2012, dated 2017)
Where no end group is shown, it is not given here.

Experiments:
[1] = Acute nocturnal food intake in normal-weight rats; format: in vivo, rat; conditions: linagliptin 0.5 mg/kg sc BID, GLP-1 0.4 mg/kg sc BID
Description: (§1) This anti-obesity effect is caused by appetite suppression and change in diet preference, presumably associated with increased dynorphin activity in dopaminergic forebrain regions involved in reward anticipation and habit learning.

[2] = Diet-induced obese (DIO) rats: body weight, food intake, diet preference; format: in vivo, rat; conditions: 14 days of monotherapy
Description: as §1

[3] = Oral sucrose tolerance test (glucose control) on Day 4 in diabetic ZDF rats; format: in vivo, Male ZDF-Leprfa/Crl (diabetic fa/fa) rats; conditions: po daily 4 days, oral sucrose tolerance test Day 4
Protocol: (§2) Male ZDF-Leprfa/Crl (diabetic fa/fa) rats fed standard chow are allocated (n=10/group) based on body weight and fasting plasma glucose (FPG). […] An oral sucrose tolerance test (4 g/kg po) is performed on Day 4 and body weight is recorded daily.

active GLP-1 = assay: Plasma active GLP-1 5 min after sucrose load in diabetic ZDF rats; format: in vivo, Male ZDF-Leprfa/Crl (diabetic fa/fa) rats; conditions: 5 min after the sucrose load
Protocol: as §2

[4] = Overall body weight in diabetic ZDF rats dosed daily for 4 days; format: in vivo, Male ZDF-Leprfa/Crl (diabetic fa/fa) rats; conditions: po daily 4 days
Protocol: as §2

[5] = Safety and tolerability in people with type 2 diabetes
[6] = Pharmacokinetics of BI 1356 after multiple oral doses once daily for 12 days in patients with type 2 diabetes; conditions: for fe0-24 / feτ, ss: gMean; for feτ, ss: steady state (Day 12)
[7] = S1: linagliptin 1 mg/kg, high-dose voglibose 10 mg/kg
[8] = S2: linagliptin 1 mg/kg, low-dose voglibose 1 mg/kg
[9] = S1: linagliptin 1 mg/kg, voglibose 10 mg/kg
[10] = S2: linagliptin 1 mg/kg, voglibose 1 mg/kg

In the case of `CC#CCn1c(N2CCC[C@@H](N)C2)nc2c1c(=O)n(Cc1nc(C)c3ccccc3n1)c(=O)n2C` [BI 1356], the nocturnal food intake [1] is reported as “no effect”, the body weight [2] is reported as “no effect” and the “glucose control compared with vehicle” value [3, 7] is reported as −10%. The “glucose control compared with vehicle” value [3, 8] was −17%, the “plasma active GLP-1 increase compared with vehicle” value (active GLP-1; S1 (voglibose 10 mg/kg)) was 160% and the “plasma active GLP-1 increase compared with vehicle” value (active GLP-1; S2 (voglibose 1 mg/kg)) was 144%. The “change in overall weight compared with vehicle” value (“change in overall weight” for short) [4, 9] was “+0.7%”, the “change in overall weight” value [4, 10] was −0.2% and the safety and tolerability [5] was “placebo-like safety and tolerability”. For the same molecule, the “mean accumulation ratio RA,AUC” value ([6]; doses above 1 mg) was ≤ 1.4, the fe0-24 ([6]; 2.5 mg oral once daily) was 0.139% and the fe0-24 ([6]; 5 mg oral once daily) was 0.453%. The fe0-24 ([6]; 10 mg oral once daily) was 0.919%, the “feτ, ss” value ([6]; 1 mg oral once daily) was 3.34% and the “feτ, ss” value ([6]; 2.5 mg oral once daily) was 3.06%. The “feτ, ss” value ([6]; 5 mg oral once daily) was 6.27%, the “feτ, ss” value ([6]; 10 mg oral once daily) was 3.22% and the “form and route of excretion” value ([6]; human, in vivo) was “primarily excreted unchanged via the bile”. The “excreted via the kidney” value ([6]; therapeutic oral dose levels) was < 7 % of the administered oral dose and the “main route of excretion” value ([6]; therapeutic oral dose levels) was “mainly excreted via the liver”.

For “GLP-1: native GLP-1(7-36), short acting GLP-1 receptor agonist (HAEGTFTSDVSSYLEGQAAKEFIAWLVKGR; ends and bridges not checked; UniProt P01275 98-127, looked up, fragment) [reference compound]”, the nocturnal food intake [1] was “modest and short-lived suppression” and the body weight [2] was “no effect”.

For `OCC(CO)N[C@H]1C[C@](O)(CO)[C@@H](O)[C@H](O)[C@H]1O` [voglibose, reference compound], the “glucose control compared with vehicle” value [3, 7] was −33%, the “glucose control compared with vehicle” value [3, 8] was −18% and the “change in overall weight” value [4, 9] was −3.0%. For the same molecule, the “change in overall weight” value [4, 10] was −1.7%.
